This note sets out measurements from patent US20090111801A1, “SUBSTITUTED PYRAZINONE DERIVATIVES FOR USE AS A MEDICINE” (Janssen Pharmaceutica N.V., priority 2006, published 2009).

One assay concerns the target T1, hα2A receptor (Homo sapiens, UniProt P08913).
T1 construct: expressed in transfected cells; host or cells: CHO cells, stably transfected; membrane preparation
T1 sequence (P08913 1-465): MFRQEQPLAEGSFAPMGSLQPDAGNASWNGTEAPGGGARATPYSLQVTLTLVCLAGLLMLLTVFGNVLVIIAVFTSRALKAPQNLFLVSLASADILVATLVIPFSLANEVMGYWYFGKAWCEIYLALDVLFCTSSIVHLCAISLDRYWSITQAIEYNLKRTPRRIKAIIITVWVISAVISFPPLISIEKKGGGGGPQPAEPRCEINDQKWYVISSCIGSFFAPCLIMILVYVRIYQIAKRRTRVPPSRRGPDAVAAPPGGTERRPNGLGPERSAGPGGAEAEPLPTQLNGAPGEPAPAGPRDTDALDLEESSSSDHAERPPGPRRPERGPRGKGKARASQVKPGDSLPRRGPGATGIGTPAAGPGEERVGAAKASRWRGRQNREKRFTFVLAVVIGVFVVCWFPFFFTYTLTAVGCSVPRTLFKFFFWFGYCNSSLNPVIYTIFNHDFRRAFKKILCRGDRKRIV
The assay is described as follows: Radioligand binding experiment for α2A-adrenoceptor ([3H]raulwolscine, CHO cell membranes). Particulars: [3H]raulwolscine binding; for IC50: read-out: h-α2A pIC50 (converted). The method, then:
(§1) The interaction of a compound of Formula (I) with α2-adrenoceptor receptors was assessed in in vitro radioligand binding experiments. In general, a low concentration of a radioligand with a high binding affinity for a particular receptor or transporter is incubated with a sample of a tissue preparation enriched in a particular receptor or transporter or with a preparation of cells expressing cloned human receptors in a buffered medium. During the incubation, the radioligand binds to the receptor or transporter. When equilibrium of binding is reached, the receptor bound radioactivity is separated from the non-bound radioactivity, and the receptor- or transporter-bound activity is counted. The interaction of the test compounds with the receptor is assessed in competition binding experiments. Various concentrations of the test compound are added to the incubation mixture containing the receptor- or transporter preparation and the radioligand. The test compound in proportion to its binding affinity and its concentration inhibits binding of the radioligand. The radioligand used for hα2A and hα2C receptor binding was [^3H]-raulwolscine.
(§2) CHO cells, stabile transfected with human adrenergic-α2A and α2C receptor cDNA, were cultured in Dulbecco's Modified Eagle's Medium (DMEM)/Nutrient mixture Ham's F12 (ratio 1:1)(Gibco, Gent-Belgium) supplemented with 10% heat inactivated fetal calf serum (Life Technologies, Merelbeke-Belgium) and antibiotics (100 IU/ml penicillin G, 100 μg/ml streptomycin sulphate, 110 μg/ml pyruvic acid and 100 μg/ml L-glutamine). One day before collection, cells were induced with 5 mM sodiumbutyrate. Upon 80-90% of confluence, cells were scraped in phosphate buffered saline without Ca^2+ and Mg^2+ and collected by centrifugation at 1500×g for 10 minutes. The cells were homogenised in Tris-HCl 50 mM using an Ultraturrax homogenizer and centrifuged for 10 minutes at 23,500×g. The pellet was washed once by resuspension and rehomogenization and the final pellet was resuspended in Tris-HCl, divided in 1 ml aliquots and stored at −70° C.
(§3) Membranes were thawed and re-homogenized in incubation buffer (glycylglycine 25 mM, pH 8.0). […] Filters were rinsed extensively with ice-cold rinsing buffer (Tris-HCl 50 mM pH 7.4). Filter-bound radioactivity was determined by scintillation counting in a Topcount (Packard, Meriden, Conn.) and results were expressed as counts per minute (cpm). Non-specific binding was determined in the presence of 1 μM oxymetazoline for the hα2A receptor and 1 μM spiroxatrine for hα2C receptor.
(§4) Data from assays in the presence of compound were calculated as a percentage of total binding measured in the absence of test compound. Inhibition curves, plotting percent of total binding versus the log value of the concentration of the test compound, were automatically generated, and sigmoidal inhibition curves were fitted using non-linear regression. The pIC50 values of test compounds were derived from individual curves.

The target in the next assay is T2, hα2C receptor (Homo sapiens, UniProt P18825).
T2 construct: expressed in transfected cells; host or cells: CHO cells, stably transfected; membrane preparation
T2 sequence (P18825 1-462): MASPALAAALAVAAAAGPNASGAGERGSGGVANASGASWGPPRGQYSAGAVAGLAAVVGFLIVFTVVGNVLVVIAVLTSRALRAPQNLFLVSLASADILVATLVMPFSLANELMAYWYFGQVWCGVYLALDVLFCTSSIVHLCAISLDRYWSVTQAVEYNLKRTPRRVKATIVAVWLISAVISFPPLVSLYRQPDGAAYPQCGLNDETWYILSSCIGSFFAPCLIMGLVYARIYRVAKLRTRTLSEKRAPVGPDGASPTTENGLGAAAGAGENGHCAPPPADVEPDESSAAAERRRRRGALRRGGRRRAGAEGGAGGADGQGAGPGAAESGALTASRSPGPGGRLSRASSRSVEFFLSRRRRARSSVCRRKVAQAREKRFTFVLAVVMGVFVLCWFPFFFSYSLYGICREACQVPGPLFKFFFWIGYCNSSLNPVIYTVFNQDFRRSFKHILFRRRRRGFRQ
Put plainly: Radioligand binding experiment for α2C-adrenoceptor ([3H]raulwolscine, CHO cell membranes). The following applies: [3H]raulwolscine binding; for IC50: read-out: h-α2C pIC50 (converted). The method, then: as §1, §2, §3, §4

Another assay concerns the target T3, 5HT-Transporter (Homo sapiens, UniProt P31645).
T3 construct: Human platelet membranes (Oceanix Biosciences Corporation, Hanover, Md., USA) were thawed; tissue Oceanix Biosciences Corporation, Hanover, Md., USA; host or cells: human platelet membranes
Put plainly: Binding experiment for the 5HT-transporter ([3H]paroxetine, human platelet membranes). Particulars: [3H]paroxetine 0.5 nM; for IC50: read-out: h-5HTT pIC50 (converted). The method, then:
as §1
Human platelet membranes (Oceanix Biosciences Corporation, Hanover, Md., USA) were thawed, diluted in buffer (Tris-HCl 50 mM, 120 mM NaCl and 5 mM KCl) and quickly (max 3 s) homogenised with an Ultraturrax homogenizer. […] Incubation was stopped by rapid filtration of the incubation mixture over GF/B filters, pre-wetted with 0.1% polyethyleneamine, using a Filtermate196 harvester (Packard, Meriden, Conn.). Filters were rinsed extensively with ice-cold buffer and radioactivity on the filters was counted in a Topcount liquid scintillation counter (Packard, Meriden, Conn.). Data were expressed as cpm. Imipramine (at 1 μM final concentration) was used to determine the non-specific binding.
as §4

T3 sequence (P31645 whole entry): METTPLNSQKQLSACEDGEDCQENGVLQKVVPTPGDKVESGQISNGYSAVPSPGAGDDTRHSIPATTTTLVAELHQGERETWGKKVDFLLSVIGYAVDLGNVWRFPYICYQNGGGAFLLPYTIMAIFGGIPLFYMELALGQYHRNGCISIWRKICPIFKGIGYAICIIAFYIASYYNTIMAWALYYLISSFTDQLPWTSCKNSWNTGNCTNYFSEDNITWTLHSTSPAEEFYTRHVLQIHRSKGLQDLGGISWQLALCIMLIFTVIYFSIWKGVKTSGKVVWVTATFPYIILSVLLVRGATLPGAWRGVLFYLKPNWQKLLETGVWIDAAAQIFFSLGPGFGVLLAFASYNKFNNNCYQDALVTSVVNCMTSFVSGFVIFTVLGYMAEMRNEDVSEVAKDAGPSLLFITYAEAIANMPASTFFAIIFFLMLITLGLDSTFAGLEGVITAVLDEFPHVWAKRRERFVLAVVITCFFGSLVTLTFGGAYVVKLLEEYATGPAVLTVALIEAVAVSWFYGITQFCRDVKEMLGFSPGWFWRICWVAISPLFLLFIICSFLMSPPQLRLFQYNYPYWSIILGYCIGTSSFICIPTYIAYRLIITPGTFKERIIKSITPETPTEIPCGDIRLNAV

As to `C/C(=C\c1ccccc1)CN1CCC(Nc2nccn(CC(=O)NCc3ccccc3)c2=O)CC1` [1-48], the IC50 is 126 nM at hα2A receptor, 5.01 nM at hα2C receptor and 2000 nM at 5HT-Transporter.
Turning to `C/C(=C\c1ccccc1)CN1CCC(Nc2nccn(-c3cccc(NCc4ccccc4)c3)c2=O)CC1` [1-49], the IC50 was 25.1 nM at hα2A receptor, 3.98 nM at hα2C receptor and 251 nM on 5HT-Transporter.
`C/C(=C\c1ccccc1)CN1CCC(Nc2nccn(-c3ccc(NCc4ccccc4)cc3)c2=O)CC1` [1-50]: the IC50 at hα2A receptor is 100 nM; at hα2C receptor, 3.16 nM; at 5HT-Transporter, 631 nM.
For `C/C(=C\c1ccccc1)CN1CCC(Nc2nccn(CCCN(C)Cc3ccccc3)c2=O)CC1` [1-51], the figures for the IC50 on hα2A receptor, at hα2C receptor and at 5HT-Transporter were 50.1 nM, 1 nM and 1000 nM, respectively.
Turning to `C/C(=C\c1ccccc1)CN1CCC(Nc2nccn(CC(=O)N(C)Cc3ccccc3)c2=O)CC1` [1-52], the IC50 at hα2A receptor is 63.1 nM; on hα2C receptor, 2.51 nM; on 5HT-Transporter, 631 nM.
For the compound `C/C(=C\c1ccccc1)CN1CCC(Nc2nccn(-c3cccc(CN(C)Cc4ccccc4)c3)c2=O)CC1` [1-53], the “h-α2A pIC50” value on hα2A receptor was 8.4. At hα2C receptor, the “h-α2C pIC50” value stood at 8.6. For the same compound, the “h-5HTT pIC50” value at 5HT-Transporter turned out to be 6.7.
Regarding `C/C(=C\c1ccccc1)CN1CCC(Nc2nccn(-c3ccc(CN(C)Cc4ccccc4)cc3)c2=O)CC1` [1-54], the IC50 was 50.1 nM on hα2A receptor, 3.98 nM on hα2C receptor and 200 nM at 5HT-Transporter.
As to `C/C(=C\c1ccccc1)CN1CCC(Nc2nccn(CC(=O)NCc3ccc(F)cc3)c2=O)CC1` [1-55], the results for the IC50 at hα2A receptor, on hα2C receptor and on 5HT-Transporter were 63.1 nM, 1.26 nM and 316 nM, respectively.
Regarding `C/C(=C\c1ccccc1)CN1CCC(Nc2nccn(-c3ccc(C(=O)NCc4ccc(F)cc4)cc3)c2=O)CC1` [1-56], the IC50 on hα2A receptor is 158 nM; on hα2C receptor it was 15.8 nM; at 5HT-Transporter it was 251 nM.
For the compound `C/C(=C\c1ccccc1)CN1CCC(Nc2nccn(CC(=O)NCCc3ccccc3)c2=O)CC1` [1-57], the values for the IC50 on hα2A receptor, on hα2C receptor and on 5HT-Transporter were 126 nM, 3.98 nM and 3160 nM, respectively.
Take `C/C(=C\c1ccccc1)CN1CCC(Nc2nccn(-c3cccc(NCCc4ccccc4)c3)c2=O)CC1` [1-58]: the figures for the IC50 on hα2A receptor, at hα2C receptor and on 5HT-Transporter were 25.1 nM, 6.31 nM and 398 nM, respectively.
As to `C/C(=C\c1ccccc1)CN1CCC(Nc2nccn(-c3ccc(NCCc4ccccc4)cc3)c2=O)CC1` [1-59], the IC50 on hα2A receptor is 79.4 nM; on hα2C receptor, 10 nM; at 5HT-Transporter it was 1260 nM.
With `C/C(=C\c1ccccc1)CN1CCC(Nc2nccn(CC(=O)NCCCc3ccccc3)c2=O)CC1` [1-60], the results for the IC50 at hα2A receptor, at hα2C receptor and at 5HT-Transporter were 79.4 nM, 10 nM and 794 nM, respectively.
As for `C/C(=C\c1ccccc1)CN1CCC(Nc2nccn(CC(=O)N(C)CCc3ccccc3)c2=O)CC1` [1-61], the IC50 on hα2A receptor was 100 nM; on hα2C receptor it was 6.31 nM; on 5HT-Transporter, 1260 nM.
Turning to `C/C(=C\c1ccccc1)CN1CCC(Nc2nccn(CC(=O)NC(C)(C)Cc3ccccc3)c2=O)CC1` [1-62], the IC50 at hα2A receptor was 126 nM; on hα2C receptor, 3.16 nM; at 5HT-Transporter, 1000 nM.
As to `COc1ccc(NC(=O)Cn2ccnc(NC3CCN(C/C(C)=C/c4ccccc4)CC3)c2=O)cc1` [1-63], the figures for the IC50 at hα2A receptor, at hα2C receptor and on 5HT-Transporter were 100 nM, 12.6 nM and 631 nM, respectively.
As to `COc1ccc(CNC(=O)Cn2ccnc(NC3CCN(C/C(C)=C/c4ccccc4)CC3)c2=O)cc1` [1-64], the values for the IC50 on hα2A receptor, at hα2C receptor and at 5HT-Transporter were 251 nM, 12.6 nM and 1580 nM, respectively.
The like results for `COc1cc(CNC(=O)Cn2ccnc(NC3CCN(C/C(C)=C/c4ccccc4)CC3)c2=O)cc(OC)c1` [1-65] were, in that order, 100 nM, 3.98 nM and 794 nM.
For `CCCCN(Cc1ccccc1)C(=O)Cn1ccnc(NC2CCN(C/C(C)=C/c3ccccc3)CC2)c1=O` [1-66] the same measures were 79.4 nM, 12.6 nM and 794 nM.
